Values quoted from earlier work in paper PMC7774954, “Interactomic affinity profiling by holdup assay: Acetylation and distal residues impact the PDZome-binding specificity of PTEN phosphatase” (PLoS ONE, 2020).
Where no end group is shown, it is not given here. The star is where a group is joined. Biotin = O=C1N[C@H]2[C@H](CS[C@H]2CCCCC(=O)*)N1; TTDS = NCCCOCCOCCOCCCNC(=O)CCC(=O)*

Key:
PTPN13-4 domain = conditions: cited from earlier work
Excerpt: It has been shown that the binding of the tumor suppressor PTEN, through its PBM, to PDZ dom ...

SNX27 PDZ 1 = conditions: ITC, read-out: KD (affinity provided in the literature); cited from earlier work
Excerpt: (§1) Table 1 PDZ domains interactors for PTEN according to literature and the present study. | column: KD ^d

PARD3 PDZ 3 = conditions: FP, read-out: KD (affinity provided in the literature); cited from earlier work
Excerpt: as §1

MAST2 PDZ 1 = conditions: ITC, read-out: KD (affinity provided in the literature); cited from earlier work
Excerpt: as §1

In the case of “PTEN: PTEN constructs of published studies; phosphatase and tensin homolog deleted on chromosome 10 ({Biotin-TTDS}-DEDQHTQITKV)”, the “interaction with PTPN13-4 (in words)” value (PTPN13-4 domain) is listed as “absence of interaction”, the Kd (SNX27 PDZ 1) is listed as 38 µM and the Kd (PARD3 PDZ 3) is listed as 19 µM. For the same substance, the Kd (MAST2 PDZ 1) was 2 µM.
